Laboratory results published in patent publication US10487115B2, “Proteinaceous compounds and uses therefor” (UNIVERSITY OF CANBERRA, priority 2016, dated 2019).
* marks the point of attachment. Myristoyl = CCCCCCCCCCCCCC(=O)*

Key:
PKC-α = biological target: T1, PKC-α (Homo sapiens, UniProt P17252); test: Localization of PKC-α in PMA-stimulated MCF7 cells (immunofluorescence, Fn/c); type: cell-based; details: 50 μM, p=not significant relative to control
T1 construct: endogenous in cells; host or cells: MCF7
Method: (§1) MCF7 cells were pre-seeded overnight on sterile coverslips in 12 well plates with 1 mL of completed Dulbecco's modified eagle medium (DMEM) before incubating with 50 μM of importinib4759 (synthesized in accordance with Example 1) and importinib4759_O1 (synthesized in accordance with Example 1) for 24 hr. Test peptides were not removed when MCF7 cells were stimulated with 0.65 ng/mL of phorbol 12-myristate 13-acetate (PMA) for 60 hr. Diethylpyrocarbonate (DEPC)-water was used for control (test peptides were dissolved in sterile DEPC-water). After wash with Dulbecco's phosphate buffered saline (DPBS) twice, samples on coverslips were fixed with 4% paraformaldehyde for 10 minutes and stained with PKC-θ (Cat. SC-212), PKC-θ-Phosphor-T538, PKC-β2, PKC-α, Importin α, or Importin 8 primary Antibody respectively and conjugated Alexa-488 secondary Antibody. Cell nucleus was stained with anti-fade 2-(4-amidinophenyl)-6-indolecarbamidine dihydrochloride (DAPI). When samples were dried overnight, Nikon fluorescence microscopy was used to take photos. ImageJ software was used for densimetric analysis. Fn/c was calculated using the formula: Fn/c=(nuclear density-background density)/(cytoplasmic density-background density).

p53 = test: Nuclear expression of p53 in PMA-stimulated MCF7 cells (immunofluorescence, Fn/c); type: cell-based, human; details: 50 μM 24 hr, PMA 60 hr, p=0.0009
Method: (§2) MCF7 cells were pre-seeded overnight on sterile coverslips in 12 well plates with 1 mL of completed DMEM before inhibiting with 50 μM of importinib4759_O1 (synthesized in accordance with Example 1) for 24 hr. Importinib4759_O1 was removed when MCF7 cells were stimulated with 0.65 ng/mL of PMA for 60 hr. DEPC-water was used as the control (importinib4759_O1 was dissolved in sterile DEPC-water). After washing with DPBS twice, samples on coverslips were fixed with 4% paraformaldehyde for 10 minutes and stained with p65, Rb, or p53 primary Antibody and conjugated Alexa-488 secondary Antibody. Cell nucleus was stained with anti-fade DAPI. When samples were dried overnight, Nikon fluorescence microscopy was used to take photos. ImageJ software was used for densimetric analysis. Fn/c was calculated using the formula: Fn/c=(nuclear density-background density)/(cytoplasmic density-background density).

PKC-β2 = biological target: T2, PKC-β2 (Homo sapiens, UniProt P05771); test: Localization of PKC-β2 in PMA-stimulated MCF7 cells (immunofluorescence, Fn/c); type: cell-based; details: 50 μM, p=not significant relative to control
T2 construct: endogenous in cells; host or cells: MCF7
T2 sequence (P05771 1-673 isoform P05771-2): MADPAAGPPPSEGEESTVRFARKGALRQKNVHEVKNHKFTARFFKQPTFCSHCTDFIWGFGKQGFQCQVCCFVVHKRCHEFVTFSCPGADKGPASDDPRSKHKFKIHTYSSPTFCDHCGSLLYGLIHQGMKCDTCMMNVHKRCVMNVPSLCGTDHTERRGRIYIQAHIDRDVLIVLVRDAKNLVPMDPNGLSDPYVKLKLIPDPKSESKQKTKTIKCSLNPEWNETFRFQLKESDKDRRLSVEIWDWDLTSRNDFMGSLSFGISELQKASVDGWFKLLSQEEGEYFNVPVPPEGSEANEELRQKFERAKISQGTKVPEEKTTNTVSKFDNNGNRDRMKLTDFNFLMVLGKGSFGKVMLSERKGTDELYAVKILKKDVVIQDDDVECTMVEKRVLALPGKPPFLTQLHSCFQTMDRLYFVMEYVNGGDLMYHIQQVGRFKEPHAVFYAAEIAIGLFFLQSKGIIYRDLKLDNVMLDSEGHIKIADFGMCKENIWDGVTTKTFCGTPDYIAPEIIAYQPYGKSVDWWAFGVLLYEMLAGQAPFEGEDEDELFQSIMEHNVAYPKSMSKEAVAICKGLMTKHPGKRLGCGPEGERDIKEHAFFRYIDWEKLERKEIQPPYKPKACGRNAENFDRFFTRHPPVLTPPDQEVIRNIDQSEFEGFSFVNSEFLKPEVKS
Method: as §1

Rb = test: Expression of tumor suppressor protein Rb in PMA-stimulated MCF7 cells (immunofluorescence, Fn/c); type: cell-based, human; details: 50 μM 24 hr, PMA 60 hr, p=0.0007
Method: as §2

Importin α = test: Localization of Importin α in PMA-stimulated MCF7 cells (immunofluorescence, Fn/c); type: cell-based, human; details: 50 μM, p=not significant relative to control
Method: as §1

NF-κB p65 = test: Nuclear expression of NF-κB p65 in PMA-stimulated MCF7 cells (immunofluorescence, Fn/c); type: cell-based, human; details: 50 μM 24 hr, PMA 60 hr, p=0.0033
Method: as §2

MDA-MB-231 cells = test: Live cell population after treatment, MDA-MB-231 cells (FACS); type: cell-based, human; details: 48 hr treatment, p<0.0001 relative to control
Method: (§3) 5×10^4 MDA-MB-231 cells were seeded with 1 mL of complete DMEM in 12 well plates overnight, then importinib4759 (5004 and 100 μM; synthesized in accordance with Example 1) or importinib4759_O1 (2504 and 50 μM; synthesized in accordance with Example 1) were used to treat cells for 48 hr before samples were harvested by trypsinization followed by washing with DPBS containing 2% HI-FBS. FACS staining was performed using anti-human CD44-APC, anti-human CD24-PE, Hoechst, and anti-human EpCAM antibody cocktails. Data was collected from BD FACSLSR-II flow cytometer. Treestar FlowJo was used for data analysis.

MCF7 cells = test: CD44hiCD24lo cancer stem cell formation in MCF-IM model (FACS); type: cell-based, human; details: importinib4759 5004 and 100 μM, importinib4759_O1 2504 and 50 μM, 24 hr before PMA 60 hr, p=0.0079 relative to control
Method: as §3, with “5×10^4 MCF7” for “5×10^4 MDA-MB-231”, “for 24” for “for 48”, “before stimulation with PMA for 60 hr. Samples” for “before samples”, “2% heat inactivated foetal bovine serum (HI-FBS).” for “2% HI-FBS.”, “staining were” for “staining was”

PKC-θ = biological target: T3, PKC-θ (Homo sapiens, UniProt Q04759); test: Nuclear translocation of PKC-θ in PMA-stimulated MCF7 cells (immunofluorescence, Fn/c); type: cell-based
T3 construct: endogenous in cells; host or cells: MCF7
T3 sequence (Q04759 whole entry): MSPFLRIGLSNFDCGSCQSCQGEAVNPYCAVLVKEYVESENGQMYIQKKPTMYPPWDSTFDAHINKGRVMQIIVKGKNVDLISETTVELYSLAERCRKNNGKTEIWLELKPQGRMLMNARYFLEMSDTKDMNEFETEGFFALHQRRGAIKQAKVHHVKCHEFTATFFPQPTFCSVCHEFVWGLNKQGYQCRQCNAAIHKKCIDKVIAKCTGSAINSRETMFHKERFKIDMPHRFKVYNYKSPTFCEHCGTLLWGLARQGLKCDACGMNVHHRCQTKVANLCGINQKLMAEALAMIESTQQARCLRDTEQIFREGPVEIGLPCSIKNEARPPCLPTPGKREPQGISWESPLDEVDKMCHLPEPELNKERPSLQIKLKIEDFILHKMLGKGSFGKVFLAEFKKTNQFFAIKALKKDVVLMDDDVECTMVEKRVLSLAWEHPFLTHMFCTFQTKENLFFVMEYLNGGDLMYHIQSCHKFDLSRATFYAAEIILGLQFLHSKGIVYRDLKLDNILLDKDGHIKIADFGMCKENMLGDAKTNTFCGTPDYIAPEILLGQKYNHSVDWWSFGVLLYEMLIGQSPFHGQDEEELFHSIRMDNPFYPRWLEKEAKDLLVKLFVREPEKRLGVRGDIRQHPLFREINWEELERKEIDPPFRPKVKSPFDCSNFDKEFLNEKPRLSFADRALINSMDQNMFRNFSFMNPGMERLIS
Method: as §1

MCF7 epithelial cells = test: Live cell population after treatment, MCF7 cells (FACS); type: cell-based, human; details: same concentration of inhibitor as in MDA-MB-231 cells
Method: as §3, with “5×10^4 MCF7” for “5×10^4 MDA-MB-231”, “for 24” for “for 48”, “before stimulation with PMA for 60 hr. Samples” for “before samples”, “2% heat inactivated foetal bovine serum (HI-FBS).” for “2% HI-FBS.”, “staining were” for “staining was”
as §3

Importin 8 = biological target: T4, Importin 8 (Homo sapiens, UniProt O15397); test: Localization of Importin 8 in PMA-stimulated MCF7 cells (immunofluorescence, Fn/c); type: cell-based; details: 50 μM, p=not significant relative to control
T4 construct: endogenous in cells; host or cells: MCF7
T4 sequence (O15397 whole entry): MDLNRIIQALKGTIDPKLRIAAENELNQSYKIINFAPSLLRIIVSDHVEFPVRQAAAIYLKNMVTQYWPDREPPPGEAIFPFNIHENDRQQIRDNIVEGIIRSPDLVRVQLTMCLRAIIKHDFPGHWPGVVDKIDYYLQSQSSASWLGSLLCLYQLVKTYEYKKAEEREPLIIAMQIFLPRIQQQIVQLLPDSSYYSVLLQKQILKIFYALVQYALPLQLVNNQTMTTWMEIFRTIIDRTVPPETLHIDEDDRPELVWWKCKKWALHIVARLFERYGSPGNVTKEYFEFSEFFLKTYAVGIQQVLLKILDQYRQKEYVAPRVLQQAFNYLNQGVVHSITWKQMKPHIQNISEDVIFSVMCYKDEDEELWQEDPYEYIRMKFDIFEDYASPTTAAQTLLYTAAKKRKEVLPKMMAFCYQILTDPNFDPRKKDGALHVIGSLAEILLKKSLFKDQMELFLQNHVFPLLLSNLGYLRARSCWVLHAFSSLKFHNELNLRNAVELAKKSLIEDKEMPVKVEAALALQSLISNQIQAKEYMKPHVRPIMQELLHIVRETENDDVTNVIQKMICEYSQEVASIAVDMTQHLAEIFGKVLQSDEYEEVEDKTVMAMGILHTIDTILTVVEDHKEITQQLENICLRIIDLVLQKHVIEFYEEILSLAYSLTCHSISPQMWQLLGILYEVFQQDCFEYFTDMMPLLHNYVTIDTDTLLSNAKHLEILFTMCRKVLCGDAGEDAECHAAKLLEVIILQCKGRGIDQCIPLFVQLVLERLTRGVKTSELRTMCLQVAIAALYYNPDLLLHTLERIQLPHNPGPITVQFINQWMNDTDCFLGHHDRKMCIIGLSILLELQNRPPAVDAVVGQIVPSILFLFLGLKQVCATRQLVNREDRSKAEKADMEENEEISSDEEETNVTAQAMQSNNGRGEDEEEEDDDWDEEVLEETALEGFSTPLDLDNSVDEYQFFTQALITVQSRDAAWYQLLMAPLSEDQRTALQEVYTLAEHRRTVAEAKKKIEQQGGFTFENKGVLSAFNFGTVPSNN
Method: as §1

MDA-MB-231 xenograft = test: Balb/c-nude MDA-MB-231 xenograft breast cancer model: tumor volume and cancer stem cell proportion; type: in vivo, balb/c-nude mice
Method: A Balb/c-nude MDA-MB-231 xenograft breast cancer model was utilized to determine the effect of the importinib peptides alone and in combination with the chemotherapeutic, docetaxel in comparison to a randomized peptide control.
Five week old balb/c-nude mice (n=5 per test compound) were injected with MDA-MB-231 human breast carcinoma cell suspensions (2×10^6 cells in 25 μL PBS mixed with 25 μL of BD Matrigel Matrix) subcutaneously into the right mammary gland. Test compounds in a saline vehicle [4 mg/kg docetaxel; 8 mg/kg, 40 mg/kg and 60 mg/kg importinib4759 or importinib4759_O1 (synthesized in accordance with Example 1); 4 mg/kg docetaxel with 8 mg/kg importinib4759 or importinib4759_O1; 4 mg/kg docetaxel with 40 mg/kg importinib4759 or importinib4759_O1; 4 mg/kg docetaxel with 60 mg/kg importinib4759 or importinib4759_O1; or randomized peptide control] were injected intraperitoneally. Tumor volume was assessed using calipers daily over a period of five weeks following treatment. Animals were sacrificed after the five week period. Tumor grafts were removed using resection and processed into single cell suspensions. The percentage of cancer stem cells was determined using FACS analysis. FACS staining was performed using anti-human CD44-APC, anti-human CD24-PE, Hoechst, and anti-human EpCAM antibody cocktails. Data was collected from BD FACSLSR-II flow cytometer. Treestar FlowJo was used for data analysis. Significance was determined using a one-way ANOVA or Mann-Whitney T-test.

For “RRKRIDWPPRRKPK-OH (Myristoyl-RRKRIDWPPRRKPK-OH; SMILES CCCCCCCCCCCCCC(=O)N[C@@H](CCCNC(=N)N)C(=O)N[C@@H](CCCNC(=N)N)C(=O)N[C@@H](CCCCN)C(=O)N[C@@H](CCCNC(=N)N)C(=O)N[C@H](C(=O)N[C@@H](CC(=O)O)C(=O)N[C@@H](Cc1c[nH]c2ccccc12)C(=O)N1CCC[C@H]1C(=O)N1CCC[C@H]1C(=O)N[C@@H](CCCNC(=N)N)C(=O)N[C@@H](CCCNC(=N)N)C(=O)N[C@@H](CCCCN)C(=O)N1CCC[C@H]1C(=O)N[C@@H](CCCCN)C(=O)O)[C@@H](C)CC) [Importinib4759_O1, tested N-myristoylated]”, which “effect on distribution of PKC-α” value (PKC-α) is on record?
The value was “had no effect”.

What about the “nuclear expression of p53” value (p53) of the same substance?
Its value is “significantly inhibited nuclear expression”.

And the “effect on distribution of PKC-β2” value (PKC-β2)?
The value was “had no effect”.

And the “expression of tumor suppressor protein Rb” value (Rb)?
The value was “enhanced expression”.

What about the “effect on distribution of Importin α” value (Importin α) of the same substance?
The value was “had no effect”.

What about the “nuclear expression of NF-κB p65” value (NF-κB p65) of the same substance?
Its value is “significantly inhibited nuclear expression”.

And the “effect on live cell population of MDA-MB-231 cells” value (MDA-MB-231 cells)?
The value was “cleared virtually all MDA-MB-231 cells”.

And the “cancer stem cell (CD44hiCD24lo) formation” value (MCF7 cells)?
The value was “inhibited”.

And the “blocking of nuclear PKC-θ (nuclear translocation)” value (PKC-θ; 50 μM peptide 24 hr, then PMA 0.65 ng/mL 60 hr, N-myristoylated peptides, p<0.0001 relative to control)?
The value was “capable of blocking nuclear PKC-θ”.

What about the “capacity to prevent PKC-θ nuclear translocation compared to importinib4759” value (PKC-θ; 50 μM, PMA stimulated) of the same substance?
Its value is “significantly higher capacity to prevent PKC-θ nuclear translocation compared to importinib4759”.

And the “effect on live cell population of MCF7 epithelial cells” value (MCF7 epithelial cells)?
Its value is “minimal effect”.

What about the “effect on distribution of Importin 8” value (Importin 8) of the same substance?
Its value is “had no effect”.

And the “cancer stem cell (CD44highCD24low) population in tumor grafts” value (MDA-MB-231 xenograft; FACS of resected tumor grafts after five weeks)?
The value was “significantly abrogated the cancer stem cell population”.

What about the “tumor volume in comparison to the control or docetaxel treatment alone” value (MDA-MB-231 xenograft; intraperitoneal, peptide 8, 40 and 60 mg/kg, docetaxel 4 mg/kg, five weeks) of the same substance?
Its value is “abrogated tumor volume”.

What about the “tumor volume over time” value (MDA-MB-231 xenograft; intraperitoneal, peptide 8, 40 and 60 mg/kg, docetaxel 4 mg/kg, five weeks, n=5) of the same substance?
Its value is “reduced tumor volume over time”.
